Measured values from publication PMC10451648 (Antibiotics, 2023).
Converted amounts (≈) assume the structure as drawn. “Also recorded” adds a separate entry of the source. Square brackets hold non-standard residues; d marks the D form. Peptide text beside a SMILES is read from it. Aib = CC(C)(N)C(=O)O

Tests used:
S. aureus NBRC 13276 = assay type: cell-based, Staphylococcus aureus; conditions: NBRC 13276, 18 h
Description: (§1) The antimicrobial activities of peptides 1–8 against Gram-positive Staphylococcus aureus, Gram-negative Escherichia coli DH5α, Pseudomonas aeruginosa, and multidrug-resistant P. aeruginosa (MDRP) were evaluated. The minimum inhibitory concentration (MIC) against these bacteria was measured as an indicator of antimicrobial activity, and the results are discussed in Table 2.
(§2) One type of Gram-positive bacteria, S. aureus NBRC 13276, and three Gram-negative bacteria, E. coli DH5α, P. aeruginosa NBRC 13275, and MDRP, were selected for the evaluation of the antimicrobial activity of the synthesized peptides. The selected bacterial strains were obtained from the Biological Resource Center, NITE (NBRC; Tokyo, Japan), and Escherichia coli DH5α cells were purchased from BioDynamics Laboratory, Inc. (Tokyo, Japan). The antimicrobial activities of the tested peptides 1–8 against each stain were examined by the standard broth microdilution method, as previously reported. Briefly, the bacteria were seeded and grown overnight at 37 °C on Agar media for other organisms i (Agar medium) and then collected with the media for other organisms ii (liquid medium), according to the 17th revision of Japanese Pharmacopoeia. Next, 10 μL of the peptide solution per well was added to each well of a sterile 96-well plate, and 90 μL per well of inoculation was mixed with 10^4 CFUs (colony forming units) per mL and added to each well, and the plate was incubated for 18 h at 35 °C.

Proteinase K = Proteinase K (Parengyodontium album, UniProt P06873); assay: Digestion assay with proteinase K; assay type: in vitro ADME; conditions: 0.002% (v/v) proteinase K, peptide 1 mM, 37 °C, 24 h; fragments by LC-MS
Sequence of Proteinase K (P06873 106-384): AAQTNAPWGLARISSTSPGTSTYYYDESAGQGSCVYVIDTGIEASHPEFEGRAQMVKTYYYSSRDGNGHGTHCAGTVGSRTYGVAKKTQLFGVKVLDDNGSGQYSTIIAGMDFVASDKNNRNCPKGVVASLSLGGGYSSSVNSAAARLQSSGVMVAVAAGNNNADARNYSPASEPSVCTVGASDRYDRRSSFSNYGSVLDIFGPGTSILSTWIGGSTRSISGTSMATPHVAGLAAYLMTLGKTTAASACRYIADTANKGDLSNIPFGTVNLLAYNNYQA
Description: The chemical stability of 17KKV-Aib (1) was investigated using a digestion assay with proteinase K, which is a widely used representative protease for assessing sensitivity to digestive enzymes. Proteinase K is widely recognized for its ability to cleave peptide bonds on the carboxylic sides of aliphatic, aromatic, or highly hydrophobic amino acids. Peptide 1 was treated with proteinase K for 24 h, and the remaining peptide fragments were evaluated using liquid phase chromatography–mass spectrometry (LC-MS) analysis. […] All the peptides were synthesized using Fmoc-assisted solid-phase methods by Liberty Blue. […]
Each peptide (1 mM) was treated with 0.002% (v/v) Proteinase K, and the mixture was incubated at 37 °C for 2–24 h. […] The residual peptides were assessed by analytical HPLC using an InertSustainSwift C18 column (3 µm, 25 cm × 4.6 mm, solvent A: water containing 0.1% TFA, solvent B: MeCN containing 0.1% TFA, flow rate: 1.0 mL/min, gradient: 10–90% gradient of solvent B over 30 min). The digestion assay was performed in two independent experiments, and the average values from them were calculated. […]
Figure 4 Chemical stability of the peptides 1–8 against proteinase K. Each peptide was incubated with 0.002% (v/v) proteinase K for the indicated times at 37 °C, and the residuals were evaluated by LC-MS. […]

Escherichia coli DH5α = assay type: cell-based; conditions: broth microdilution, 10^4 CFUs per mL, 18 h at 35 °C; MIC = lowest concentration that completely inhibited bacterial growth; final conc. 0.39 to 100
Description: as §1, §2

human red blood cells = assay: Hemolysis activity against red blood cells; conditions: human RBCs in 172 mM Tris-HCl pH 7.6, 30 min at 37 °C, absorbance 535 nm; DMSO = 0%, M-Lycotoxin = 100%; final peptide conc. 100 to 0.39
Description: AMPs primarily target microbial membranes, leading to their antimicrobial activity through membrane lysis. However, it is important to consider their potential effects on human cell membranes, as this could raise concerns regarding cytotoxicity. […] Hemolytic activity was assessed by measuring the absorption at 535 nm, which indicates the leakage of red blood cell cytoplasmic contents and hemoglobin.
Human red blood cells (RBCs) were supplied by the Japanese Red Cross Society (Tokyo, Japan). The hemolytic assay of the synthesized peptides was performed as previously reported. Briefly, 5.0 mL of the total erythrocytes were washed three times with 172 mM Tris-HCl buffer (pH = 7.6, wash buffer:WB) and 1.0 mL of precipitated erythrocytes was diluted with 9.0 mL of WB. Then, 0.5 mL of the suspension was diluted in WB, and 50 µL of RBC solution was incubated with 50 µL of each peptide for 30 min at 37 °C (final peptide conc. from 100 to 0.39 μM). The suspensions were then centrifuged at 400 rpm for 5 min. The absorbance of the supernatant was measured at a wavelength of 535 nm. M-Lycotoxin [22], which is a typical hemolytic toxic peptide derived from Wolf spider, was used as a positive control, and the absorbance of the sample from DMSO and M-Lycotoxin treatment was defined as 0 and 100%, respectively.

[1] = tested on: multidrug-resistant P. aeruginosa (MDRP); assay type: cell-based, Pseudomonas aeruginosa; conditions: multidrug-resistant (MDRP, 18 h)
Description: as §1, §2

P. aeruginosa NBRC 13275 = assay type: cell-based, Pseudomonas aeruginosa; conditions: NBRC 13275, 18 h
Description: as §1, §2

## CC[C@H](C)[C@H](NC(=O)CN)C(=O)N[C@@H](CCCCN)C(=O)N[C@@H](CCCCN)C(=O)N[C@@H](Cc1ccccc1)C(=O)N[C@@H](CC(C)C)C(=O)N[C@@H](CCCCN)C(=O)N[C@@H](CO)C(=O)NC(C)(C)C(=O)N[C@@H](CCCCN)C(=O)N[C@@H](CCCCN)C(=O)N[C@@H](Cc1ccccc1)C(=O)N[C@H](C(=O)N[C@@H](CCCCN)C(=O)NC(C)(C)C(=O)N[C@@H](Cc1ccccc1)C(=O)N[C@@H](CCCCN)C(N)=O)C(C)C [Peptide 1] (H-GIKKFLKS[Aib]KKFVK[Aib]FK-NH2)
S. aureus NBRC 13276
  MIC, S. aureus, Gram(+): 12.5 µM (≈ 24.9 µg/mL)
Proteinase K
  Cleavage site upon proteinase K treatment: between 5th Phe and 6th Leu and 16th Phe and 17th Lys residues; also recorded: between the fifth Phe and sixth Leu residues
Escherichia coli DH5α
  MIC, E. Coli DH5α, Gram(−): 1.56 µM (≈ 3.11 µg/mL)
Human red blood cells
  Hemolysis (concentration at which hemolytic activity is exhibited): 100 µM
[1]
  MIC, MDRP: 6.25 µM (≈ 12.5 µg/mL)
P. aeruginosa NBRC 13275
  MIC, P. aeruginosa, Gram(−): 3.125 µM (≈ 6.24 µg/mL)
